Laboratory results from ChEMBL document CHEMBL1201862, “PubChem BioAssay data set” (2004).
Activity calls are given as the source filed them.

What was measured:
[1] = target: T1, Mitochondrial peptide methionine sulfoxide reductase (Bos taurus, UniProt P54149); assay type: functional;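 also: absorbance read-out, biochemical high-throughput dose-response screen for MsrA inhibitors, confirmatory; recombinant bovine MsrA coupled to E. coli TrxB with NADPH and selenocystamine; potency is for inhibitors of MsrA activity on DMSO substrate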
T1 sequence (P54149 whole entry): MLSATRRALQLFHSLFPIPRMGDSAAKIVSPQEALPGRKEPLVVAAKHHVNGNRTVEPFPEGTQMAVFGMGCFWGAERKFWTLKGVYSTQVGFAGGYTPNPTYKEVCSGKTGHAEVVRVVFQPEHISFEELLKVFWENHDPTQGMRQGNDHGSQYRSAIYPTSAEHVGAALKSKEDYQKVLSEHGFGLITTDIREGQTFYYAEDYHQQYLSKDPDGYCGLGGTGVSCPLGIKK

[2] = target: ADP-ribosylation factor GTPase-activating protein 1 (Rattus norvegicus, UniProt Q62848); experiment: Fluorescence polarization-based biochemical high throughput dose response screening assay to identify inhibitors of ADP-ribosylation factor GTPase activating protein 1 (ARFGAP1).; assay type: functional
Chain of ADP-ribosylation factor GTPase-activating protein 1 (Q62848 whole entry): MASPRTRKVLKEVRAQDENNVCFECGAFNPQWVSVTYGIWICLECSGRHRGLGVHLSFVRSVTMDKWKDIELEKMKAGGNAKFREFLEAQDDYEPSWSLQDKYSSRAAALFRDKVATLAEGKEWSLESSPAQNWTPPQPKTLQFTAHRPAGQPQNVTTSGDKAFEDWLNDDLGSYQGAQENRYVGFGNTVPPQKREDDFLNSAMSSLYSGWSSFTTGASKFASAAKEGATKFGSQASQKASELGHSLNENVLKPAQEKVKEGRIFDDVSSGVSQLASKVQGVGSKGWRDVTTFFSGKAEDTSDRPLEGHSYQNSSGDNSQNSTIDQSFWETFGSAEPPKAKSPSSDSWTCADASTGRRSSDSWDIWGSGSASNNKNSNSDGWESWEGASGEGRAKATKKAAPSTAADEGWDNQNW

[3] = target: Adenosylmethionine-8-amino-7-oxononanoate aminotransferase (Mycobacterium tuberculosis, UniProt P9WQ81); experiment: Mycobacterium tuberculosis BioA enzyme inhibitor Measured in Biochemical System Using Plate Reader - 2163-02_Inhibitor_Dose_CherryPick_Activity.; assay type: functional, Mycobacterium tuberculosis UT205
Chain of Adenosylmethionine-8-amino-7-oxononanoate aminotransferase (P9WQ81 whole entry): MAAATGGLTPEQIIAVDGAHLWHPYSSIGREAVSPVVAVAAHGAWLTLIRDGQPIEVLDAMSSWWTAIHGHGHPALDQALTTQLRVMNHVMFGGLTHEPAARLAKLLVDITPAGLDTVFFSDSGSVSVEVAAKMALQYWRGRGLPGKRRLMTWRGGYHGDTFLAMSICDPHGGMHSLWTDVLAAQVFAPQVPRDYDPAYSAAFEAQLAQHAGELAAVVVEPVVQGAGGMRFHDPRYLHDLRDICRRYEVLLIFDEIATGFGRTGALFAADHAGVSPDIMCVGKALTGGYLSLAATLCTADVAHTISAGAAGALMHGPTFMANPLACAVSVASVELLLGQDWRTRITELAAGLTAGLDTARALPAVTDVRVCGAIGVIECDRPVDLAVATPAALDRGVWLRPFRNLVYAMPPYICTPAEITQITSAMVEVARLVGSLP

[4] = toxicity toward HepG2 liver cells – cell-based, plate reader, cherry-pick, antagonist series, cytotoxicity control, dose response (AID 743416); assay type: functional
Interleukin-8 [5] = target: T2, Interleukin-8 (Homo sapiens, UniProt P10145); experiment: Dose Response confirmation of uHTS small molecule hits for cystic fibrosis induced NFkb Inhibitors in a PAF-induced IL8 counterscreen.; assay type: functional; details: read-out: IC50_Mean
T2 sequence (P10145 whole entry): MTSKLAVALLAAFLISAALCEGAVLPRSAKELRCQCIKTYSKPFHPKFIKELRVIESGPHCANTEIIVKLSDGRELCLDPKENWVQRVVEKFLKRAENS

[6] = blockers of bursicon-stimulated LGR2 cAMP reporter – cell-based, HEK293, CRE-luciferase reporter, cherry pick, set 2, dose response (AID 743343); assay type: functional;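 also: transfected cells were stimulated with diluted bursicon conditioned medium after compound addition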
Interleukin-8 [7] = target: T2, Interleukin-8; experiment: Dose Response confirmation of uHTS small molecule hits for cystic fibrosis induced NFkb Inhibitors in a TNFa-induced IL8 counterscreen.; assay type: functional; details: read-out: IC50_Mean
[8] = blockade of melanocortin 4 receptor signaling – cell-based, plate reader, cherry pick, counter-screen for LGR2 antagonist project, dose response (AID 743444); assay type: functional;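 also: transfected HEK 293 cells stimulated with alpha-MSH peptide; potency of inhibitors of the alpha-MSH evoked signal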
[9] = target: T3, Low molecular weight phosphotyrosine protein phosphatase (Homo sapiens, UniProt P24666); assay type: functional; details: read-out: IC50_Mean
T3 sequence (P24666 whole entry): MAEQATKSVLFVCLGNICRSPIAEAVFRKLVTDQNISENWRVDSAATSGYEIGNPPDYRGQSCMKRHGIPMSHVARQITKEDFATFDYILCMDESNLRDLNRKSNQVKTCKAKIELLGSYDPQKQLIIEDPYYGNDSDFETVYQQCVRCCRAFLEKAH

[10] = target: Dual specificity protein phosphatase 3 (Homo sapiens, UniProt P51452); experiment: VHR phosphatase inhibition, dose response, selectivity assay for STEP inhibitor project, biochemical (AID 602374); assay type: functional; details: read-out: IC50_Mean
Chain of Dual specificity protein phosphatase 3 (P51452 whole entry): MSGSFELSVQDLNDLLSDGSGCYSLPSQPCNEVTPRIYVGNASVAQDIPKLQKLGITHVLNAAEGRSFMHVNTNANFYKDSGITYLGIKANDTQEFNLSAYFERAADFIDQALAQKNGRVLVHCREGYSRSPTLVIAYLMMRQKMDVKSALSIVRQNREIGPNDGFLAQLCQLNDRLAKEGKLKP

[11] = target: T4, Tyrosine-protein phosphatase non-receptor type 5 (Homo sapiens, UniProt P54829); experiment: PTPN5 enzyme inhibition – biochemical, fluorescence intensity, uHTS hits, confirmation (AID 602372); assay type: functional; details: read-out: IC50_Mean
T4 sequence (P54829 whole entry): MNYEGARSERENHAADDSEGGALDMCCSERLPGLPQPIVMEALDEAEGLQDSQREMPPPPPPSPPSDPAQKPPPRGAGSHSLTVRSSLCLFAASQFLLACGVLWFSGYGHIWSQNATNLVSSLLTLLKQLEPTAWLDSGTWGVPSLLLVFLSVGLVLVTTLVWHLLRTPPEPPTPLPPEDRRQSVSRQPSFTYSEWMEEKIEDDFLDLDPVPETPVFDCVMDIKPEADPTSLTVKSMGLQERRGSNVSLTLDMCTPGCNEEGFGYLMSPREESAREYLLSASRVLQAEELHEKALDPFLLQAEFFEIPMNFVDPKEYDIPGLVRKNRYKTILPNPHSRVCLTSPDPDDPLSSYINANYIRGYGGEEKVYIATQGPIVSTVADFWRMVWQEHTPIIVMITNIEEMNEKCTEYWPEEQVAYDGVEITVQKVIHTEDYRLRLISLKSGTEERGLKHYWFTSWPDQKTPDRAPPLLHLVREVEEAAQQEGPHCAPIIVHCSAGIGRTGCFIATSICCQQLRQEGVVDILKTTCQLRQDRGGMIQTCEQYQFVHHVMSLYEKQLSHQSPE

[12] = target: Tyrosine-protein phosphatase non-receptor type 22 (Homo sapiens, UniProt Q9Y2R2); experiment: lymphoid phosphatase LYP inhibitors – biochemical, selectivity assay for STEP inhibitor project, dose response (AID 624241); assay type: functional
Chain of Tyrosine-protein phosphatase non-receptor type 22 (Q9Y2R2 whole entry): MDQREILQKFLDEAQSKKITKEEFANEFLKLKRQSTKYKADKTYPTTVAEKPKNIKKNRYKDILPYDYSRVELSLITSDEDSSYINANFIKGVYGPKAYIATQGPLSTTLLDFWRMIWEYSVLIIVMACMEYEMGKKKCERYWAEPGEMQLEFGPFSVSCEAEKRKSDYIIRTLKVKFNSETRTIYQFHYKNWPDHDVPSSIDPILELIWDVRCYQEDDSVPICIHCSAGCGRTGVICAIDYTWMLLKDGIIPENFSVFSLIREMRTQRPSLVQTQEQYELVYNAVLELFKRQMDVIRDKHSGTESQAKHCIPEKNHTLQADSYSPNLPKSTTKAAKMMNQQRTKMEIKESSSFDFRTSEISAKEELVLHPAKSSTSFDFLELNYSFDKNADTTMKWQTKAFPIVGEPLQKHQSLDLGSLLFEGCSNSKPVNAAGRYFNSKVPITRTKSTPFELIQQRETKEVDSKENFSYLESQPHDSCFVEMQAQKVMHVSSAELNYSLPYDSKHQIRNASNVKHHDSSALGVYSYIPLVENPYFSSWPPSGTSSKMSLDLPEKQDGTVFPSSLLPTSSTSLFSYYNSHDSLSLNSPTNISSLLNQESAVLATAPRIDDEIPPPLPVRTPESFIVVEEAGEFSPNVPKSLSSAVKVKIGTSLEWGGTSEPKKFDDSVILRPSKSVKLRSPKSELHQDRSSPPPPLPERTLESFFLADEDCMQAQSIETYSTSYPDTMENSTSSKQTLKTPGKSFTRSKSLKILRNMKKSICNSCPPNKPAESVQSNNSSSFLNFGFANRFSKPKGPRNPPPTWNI

[13] = target: G-protein coupled receptor 55 (Homo sapiens, UniProt Q9Y2T6); experiment: inhibition of LPI-stimulated GPR55 beta-arrestin translocation – imaging, U2OS, beta-arrestin-GFP, LPI agonist, primary screen (AID 2013); assay type: functional;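 also: antagonist potency measured as reduced agonist-driven arrestin aggregation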
Chain of G-protein coupled receptor 55 (Q9Y2T6 whole entry): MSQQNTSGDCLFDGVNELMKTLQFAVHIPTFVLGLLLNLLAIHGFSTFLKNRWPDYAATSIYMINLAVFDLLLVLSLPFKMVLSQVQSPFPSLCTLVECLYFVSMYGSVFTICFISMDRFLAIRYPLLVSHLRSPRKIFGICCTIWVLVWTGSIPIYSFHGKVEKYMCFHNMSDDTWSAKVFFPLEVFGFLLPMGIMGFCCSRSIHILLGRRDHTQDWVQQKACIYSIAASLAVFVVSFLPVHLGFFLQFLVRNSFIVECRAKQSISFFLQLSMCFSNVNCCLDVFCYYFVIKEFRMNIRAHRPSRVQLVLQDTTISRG

[14] = target: T5, Tyrosine-protein phosphatase non-receptor type 11 (Homo sapiens, UniProt Q06124); experiment: PTPN11 enzyme inhibitors – biochemical, selectivity assay for STEP inhibitor project, dose response (AID 602367); assay type: functional; details: read-out: IC50_Mean
T5 sequence (Q06124 whole entry): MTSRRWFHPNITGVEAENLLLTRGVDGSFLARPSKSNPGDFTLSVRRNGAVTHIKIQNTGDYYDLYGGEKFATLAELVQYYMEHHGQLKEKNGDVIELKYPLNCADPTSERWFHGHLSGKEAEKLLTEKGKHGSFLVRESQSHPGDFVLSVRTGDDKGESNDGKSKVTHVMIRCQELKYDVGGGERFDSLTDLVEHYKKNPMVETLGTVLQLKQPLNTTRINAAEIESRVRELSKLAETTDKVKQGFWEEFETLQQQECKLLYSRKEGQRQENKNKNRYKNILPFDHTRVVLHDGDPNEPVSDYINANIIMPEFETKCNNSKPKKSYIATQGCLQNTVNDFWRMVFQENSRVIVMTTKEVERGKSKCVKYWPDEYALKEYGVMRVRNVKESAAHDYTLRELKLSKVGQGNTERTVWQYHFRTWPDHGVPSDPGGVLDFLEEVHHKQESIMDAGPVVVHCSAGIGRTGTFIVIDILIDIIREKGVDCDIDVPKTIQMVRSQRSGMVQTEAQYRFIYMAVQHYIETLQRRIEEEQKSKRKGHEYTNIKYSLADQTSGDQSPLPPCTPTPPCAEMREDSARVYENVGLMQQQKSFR

[15] = target: T3, Low molecular weight phosphotyrosine protein phosphatase; assay type: functional; details: read-out: IC50_Mean; remark: listed apart in the source
[16] = target: T6, Replicative DNA helicase DnaB (Mycobacterium tuberculosis, UniProt P9WMR3); experiment: DnaB intein splicing inhibitors, dose response, biochemical, cell-free fluorescence (AID 449749); assay type: functional
T6 sequence (P9WMR3 whole entry): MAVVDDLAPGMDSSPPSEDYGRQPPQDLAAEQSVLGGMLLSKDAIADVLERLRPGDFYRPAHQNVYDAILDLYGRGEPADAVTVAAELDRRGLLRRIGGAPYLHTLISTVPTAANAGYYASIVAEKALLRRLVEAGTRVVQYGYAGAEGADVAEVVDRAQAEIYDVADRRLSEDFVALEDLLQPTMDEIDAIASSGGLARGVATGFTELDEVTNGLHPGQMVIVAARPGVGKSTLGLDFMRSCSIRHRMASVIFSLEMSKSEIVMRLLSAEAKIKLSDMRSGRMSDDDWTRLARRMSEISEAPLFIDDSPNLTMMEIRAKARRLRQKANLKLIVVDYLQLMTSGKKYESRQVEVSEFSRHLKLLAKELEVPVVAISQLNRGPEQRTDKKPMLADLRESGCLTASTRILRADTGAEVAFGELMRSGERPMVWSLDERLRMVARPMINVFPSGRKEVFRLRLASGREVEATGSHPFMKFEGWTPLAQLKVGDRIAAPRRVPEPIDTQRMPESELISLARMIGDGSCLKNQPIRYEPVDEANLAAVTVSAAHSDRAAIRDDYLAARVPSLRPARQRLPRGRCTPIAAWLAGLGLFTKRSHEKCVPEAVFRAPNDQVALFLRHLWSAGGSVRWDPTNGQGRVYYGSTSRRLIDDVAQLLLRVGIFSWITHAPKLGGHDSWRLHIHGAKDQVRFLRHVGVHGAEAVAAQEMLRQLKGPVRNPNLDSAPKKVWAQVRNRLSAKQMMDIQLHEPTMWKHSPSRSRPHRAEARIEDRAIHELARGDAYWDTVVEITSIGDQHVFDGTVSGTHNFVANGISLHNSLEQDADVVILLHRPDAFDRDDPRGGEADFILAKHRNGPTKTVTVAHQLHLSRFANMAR

[17] = Fluorescence-based cell-based high throughput dose response assay for inhibitors of the interaction of nucleotide-binding oligomerization domain containing 2 (NOD2) and the receptor-interacting serine-threonine kinase 2 (RIPK2).; assay type: functional; details: Homo sapiens
cells = assay type: functional
Protein RecA = target: T7, Protein RecA (Mycobacterium tuberculosis, UniProt P9WHJ3); experiment: Fluorescence Cell-Free Homogeneous Dose Retest to Identify Inhibitors of RecA-Intein Splicing Activity. [Related pubchem assays (depositor defined):AID2097, AID2223, AID489010, AID492950]; assay type: functional
T7 sequence (P9WHJ3 whole entry): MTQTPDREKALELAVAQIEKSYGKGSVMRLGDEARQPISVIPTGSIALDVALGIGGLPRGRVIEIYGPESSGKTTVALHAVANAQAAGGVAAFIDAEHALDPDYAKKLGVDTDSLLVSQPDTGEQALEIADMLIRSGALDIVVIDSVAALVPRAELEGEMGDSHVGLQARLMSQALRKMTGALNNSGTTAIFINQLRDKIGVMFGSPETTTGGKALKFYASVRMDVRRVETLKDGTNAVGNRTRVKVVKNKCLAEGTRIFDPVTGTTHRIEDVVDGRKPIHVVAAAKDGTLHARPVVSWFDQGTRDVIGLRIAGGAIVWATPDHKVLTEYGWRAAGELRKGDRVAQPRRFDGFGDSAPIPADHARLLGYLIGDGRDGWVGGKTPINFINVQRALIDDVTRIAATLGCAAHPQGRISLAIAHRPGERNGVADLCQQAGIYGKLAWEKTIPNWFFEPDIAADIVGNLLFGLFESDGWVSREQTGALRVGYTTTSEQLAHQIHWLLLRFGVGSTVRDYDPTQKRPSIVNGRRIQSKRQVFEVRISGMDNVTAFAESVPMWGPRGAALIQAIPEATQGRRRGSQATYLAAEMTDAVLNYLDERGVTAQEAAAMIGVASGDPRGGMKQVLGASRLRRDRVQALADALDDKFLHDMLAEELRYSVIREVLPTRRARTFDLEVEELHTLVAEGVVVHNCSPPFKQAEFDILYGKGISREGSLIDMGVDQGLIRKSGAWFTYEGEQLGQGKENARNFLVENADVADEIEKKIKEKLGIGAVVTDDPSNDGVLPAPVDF

[18] = THP-1 cell cytotoxicity, dose response, cytotoxicity control for non-replicating M. tuberculosis project (AID 489025); assay type: functional
[19] = Vero E6 cell cytotoxicity, dose response, cytotoxicity control for non-replicating M. tuberculosis project, secondary assay (AID 492998); assay type: functional, VeroE6; details: Vero C1008
[20] = Counterscreen for inhibitors of Trypanosoma brucei methionyl tRNA synthetase (MetRS): Luminescence-based cell-based high throughput dose response assay to identify compounds that are cytotoxic to Jurkat human T lymphocyte cells.; assay type: functional; details: Homo sapiens, Jurkat
Protein skinhead-1 = target: T8, Protein skinhead-1 (Caenorhabditis elegans, UniProt P34707); assay type: functional
T8 sequence (P34707 whole entry): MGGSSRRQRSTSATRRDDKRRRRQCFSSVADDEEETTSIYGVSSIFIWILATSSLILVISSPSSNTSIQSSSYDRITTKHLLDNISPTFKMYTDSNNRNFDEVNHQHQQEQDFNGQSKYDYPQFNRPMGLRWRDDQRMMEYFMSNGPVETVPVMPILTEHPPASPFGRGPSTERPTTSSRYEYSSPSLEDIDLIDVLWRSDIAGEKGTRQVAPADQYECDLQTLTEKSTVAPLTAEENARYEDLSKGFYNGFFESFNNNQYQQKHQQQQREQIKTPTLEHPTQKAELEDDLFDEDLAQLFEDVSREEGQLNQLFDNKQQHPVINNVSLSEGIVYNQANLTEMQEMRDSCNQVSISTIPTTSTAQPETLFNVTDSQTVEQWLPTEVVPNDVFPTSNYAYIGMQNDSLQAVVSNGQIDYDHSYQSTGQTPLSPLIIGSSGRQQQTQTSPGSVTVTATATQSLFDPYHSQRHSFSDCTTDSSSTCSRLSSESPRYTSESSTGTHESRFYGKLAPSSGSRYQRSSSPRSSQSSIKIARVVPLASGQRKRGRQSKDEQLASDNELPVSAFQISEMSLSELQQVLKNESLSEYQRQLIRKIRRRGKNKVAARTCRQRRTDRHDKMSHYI

COc1ccc(CNC(=O)c2ccc(=O)oc2)cc1OC
IC50 [1]: 151 µM (inactive)

Cc1cc(OCC(=O)Nc2cccnc2)c2c(C)c(C)c(=O)oc2c1
IC50 [2]: 64.9 µM (inactive)

Cc1cc2c(c(=O)n1Cc1cccnc1)C(c1cccs1)C(C#N)=C(N)O2 (centres undefined)
AC50 [3]: 2.08 µM (active)

Cc1ccc(-c2cc(C(=O)N(C)Cc3cnn(C)c3C)c3cc(Br)ccc3n2)cc1
AC50 [4]: 43.1 µM (active)
IC50 (Interleukin-8 [5]): 1.11 µM (active)
AC50 [6]: 29.1 µM (active)
IC50 (Interleukin-8 [7]): > 79 µM (inactive)
AC50 [8]: 26.6 µM (active)

NC(=S)NN=C1Cc2cccc3cccc1c23
IC50 [9]: 4.94 µM (active)

COc1ccccc1NS(=O)(=O)c1cc(NC(=S)NCCN2CCOCC2)ccc1N1CCOCC1
IC50 [10]: 0.498 µM (active)
IC50 [11]: 8.37 µM (active)
IC50 [12]: 31.4 µM (inactive)
IC50 [13]: 3.2 µM (active)
IC50 [14]: 0.891 µM (active)

C=CCc1cccc2cc(C(=O)NCc3cccnc3)c(=O)oc12
IC50 [15]: 21.2 µM (inactive)

Cc1noc2ncnc(Sc3ccccc3Cl)c12
AC50 [16]: 12.2 µM (active)
IC50 [17]: 4.4 µM (active)
IC50 (cells): 9.99 µM (active)
EC50 (Protein RecA): 4.04 µM (active)
CC50 [18]: 20.2 µM (active)
CC50 [19]: 16.9 µM (active)

O=S(=O)(c1ccc2[nH]c(SCc3ccc(Cl)cc3)nc2c1)N1CCOCC1
IC50 [20]: 16.9 µM (inactive)

COc1cc2c(cc1NC(=O)c1cccnc1)CCCC2
AC50 [3]: 9.76 µM (active)
IC50 (Protein skinhead-1): > 100 µM (inactive)
